According to patent US9371337B2, “β-lactamase inhibitors” (The Regents of the University of California, priority 2011, dated 2016):
Values joined by “and” are separate entries in the source; they are usually repeats but may differ in a detail not shown here. Equal values may be shown once. Read-outs that look alike come from different tables or passages of the source.

How the values were obtained:
CTX-M-9 β-lactamase = CTX-M-9 β-lactamase (Escherichia coli, UniProt Q9L5C8); assay: biochemical; assay type: biochemical; settings: for Selectivity vs AmpC (comparison of IC50 values): Table 4h, CTX-M-9 vs AmpC; for potency estimated from few doses: read-out: IC50 (Estimated from single concentration measurement); for inhibition at 16 µM: read-out: Percentage inhibition with 16 μM inhibitor
Sequence of CTX-M-9 β-lactamase (Q9L5C8 29-291): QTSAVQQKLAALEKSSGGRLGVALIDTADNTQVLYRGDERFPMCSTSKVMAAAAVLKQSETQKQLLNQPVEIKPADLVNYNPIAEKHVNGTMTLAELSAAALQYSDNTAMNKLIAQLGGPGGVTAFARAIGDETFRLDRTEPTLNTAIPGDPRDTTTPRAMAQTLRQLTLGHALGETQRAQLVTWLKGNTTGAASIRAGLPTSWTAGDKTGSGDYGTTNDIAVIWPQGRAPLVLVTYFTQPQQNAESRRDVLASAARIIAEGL
Protocol: Reactions were initiated by the addition of 0.3 nM enzyme and monitored at 405 nm.
(§1) To assess the selectivity of the new molecules we determined Ki values against three common serine proteases, Trypsin, Elastase and α-Chymotrypsin, as well as that of a class A β-lactamase, CTX-M-9 (Table 10) (Pouvreau L, et al. (1998), FEBS Lett 423:167-172; Del Mar E G, et al. (1980), Biochemistry 19:468-472; Rodriguez-Martinez J A, et al. (2009), Biotechnol Lett 31:883-887; Chen Y, et al. (2005), J Mol Biol 348:349-362).

[1] = target: T1, α-chymotrypsin (bovine pancreatic) (Bos taurus, UniProt P00766); assay: α-Chymotrypsin inhibition; assay type: biochemical; settings: for activity at 100 µM: Table 4b, 100 μM inhibitor, read-out: Percentage activity with 100 μM inhibitor; for potency estimated from few doses: Table 4e, read-out: IC50 (Estimated from single concentration measurement); for Ki: Table 10, α-Chymotrypsin; for Selectivity vs AmpC (comparison of IC50 values): Table 4h, Chymotrypsin vs AmpC; for inhibition at 100 µM: read-out: Percentage inhibition with 100 μM inhibitor
T1 construct: purchased Sigma-Aldrich
Protocol: α-Chymotrypsin assays were performed in 50 mM Tris buffer pH 7.5 with 0.01% Triton-X. Inhibitor and 0.001 mg/mL enzyme were incubated at their final concentration for 10 min before the reaction was initiated by the addition of 200 μM N-succinyl-Ala-Ala-Pro-Phe p-nitroanilide and monitored at 410 nm.
as §1

AmpC β-lactamase [2] = target: T2, AmpC β-lactamase (Escherichia coli, UniProt P00811); assay: biochemical; assay type: biochemical; settings: for improved affinity compared to CR157: ratio of Ki values
T2 construct: made in house
T2 sequence (P00811 20-377): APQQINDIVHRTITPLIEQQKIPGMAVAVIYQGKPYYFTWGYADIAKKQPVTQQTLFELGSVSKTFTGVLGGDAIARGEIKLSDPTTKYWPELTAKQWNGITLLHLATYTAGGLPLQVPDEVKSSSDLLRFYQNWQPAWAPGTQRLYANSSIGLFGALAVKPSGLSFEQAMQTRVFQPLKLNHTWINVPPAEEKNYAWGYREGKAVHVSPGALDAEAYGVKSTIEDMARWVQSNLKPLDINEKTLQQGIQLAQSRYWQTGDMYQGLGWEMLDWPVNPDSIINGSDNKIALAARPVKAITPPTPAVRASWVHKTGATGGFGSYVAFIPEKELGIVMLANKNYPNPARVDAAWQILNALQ
Protocol: FIG. 18. Representative IC50 curves. […] IC50 curves were obtained by measuring rates (in duplicates) at different inhibitor concentrations (x-axis) and by determining the residual activity (y-axis, in percentage). IC50 values were determined by non-linear regression and Ki values calculated using GraphPad software assuming competitive inhibition.
Sulfonamidomethaneboronic acids were dissolved in 100% DMSO at a concentration of 100 mM; more diluted stocks were prepared as necessary. […] The enzyme was expressed and purified as described (Usher, K. C. et al., Biochemistry 1998, 37, 16082-16092) and CENTA was purchased from Tydock Pharma.
Kinetic measurements were run at room temperature in 50 mM sodium-cacodylate pH 6.5 in the presence of 0.01% Triton-X to prevent non-specific inhibition via compound aggregation. […] (Kettner, C. A. and Shenvi, A. B., J. Biol. Chem. 1984, 259, 15106-15114) Reactions were performed in 1 mL cuvettes with 60 μM CENTA and initiated by adding 1.2 nM enzyme. […] (Weston, G. S. et al., J. Med. Chem. 1998, 41, 4577-4586) The first 180 sec of each reaction were used to measure initial rates. IC50 values were obtained by fitting binding data to a sigmoidal dose-response equation using GraphPad Prism (GraphPad software, Inc). Ki values were determined by the use of Cheng-Prusoff equation. (Cheng, Y. and Prusoff, W. H., Biochem. Pharmacol. 1973, 22, 3099-3108)

Trypsin [3] = target: T3, Trypsin (UniProt P00760); assay: Trypsin inhibition; assay type: biochemical; settings: for Percentage activity with 100 μM inhibitor: Table 4b; for Percentage inhibition with 100 μM inhibitor: Table 4c; for potency estimated from few doses: read-out: IC50 (Estimated from single concentration measurement), Table 4e
T3 construct: IC50 (Estimated from single concentration measurement); Ki
T3 sequence (P00760 1-246): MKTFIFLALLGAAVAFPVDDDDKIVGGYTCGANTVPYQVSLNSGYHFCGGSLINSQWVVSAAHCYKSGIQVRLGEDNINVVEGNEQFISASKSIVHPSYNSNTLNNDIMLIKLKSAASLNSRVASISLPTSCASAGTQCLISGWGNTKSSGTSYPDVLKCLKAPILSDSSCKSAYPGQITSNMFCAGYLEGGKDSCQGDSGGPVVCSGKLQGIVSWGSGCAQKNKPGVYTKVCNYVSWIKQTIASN

Trypsin [4] = assay: Trypsin inhibition; assay type: biochemical; settings: Table 4h, Trypsin vs AmpC
Trypsin [5] = target: T3, Trypsin; assay: Trypsin inhibition; assay type: biochemical; settings: Table 10, Trypsin
Description: as §1

[6] = system: clinical strains resistant to third-generation cephalosporins; assay: MIC distribution of third-generation cephalosporins alone or with compounds over clinical strains; assay type: cell-based; settings: for clinical isolates for which MICs dropped into the susceptible range (MICs≦1 μg/mL): cephalosporins combined with the compound; for MIC 25% percentile / MIC 75% percentile: third-generation cephalosporins in combination with the compound
Protocol: The anti-resistance activity of inhibitors was investigated by the determination of the minimum inhibitory concentrations (MICs) of the β-lactam/inhibitor combination necessary to inhibit the growth of clinically-isolated bacteria resistant to third-generation cephalosporins via expression of class A or class C β-lactamases (Table 6).
Susceptibility testing was performed and interpreted following the guidelines of CLSI. (Clinical and Laboratory Standards Institute, Performance standards for antimicrobial susceptibility testing, 20th Informational Supplement, M100-S20 2010) The compounds were dissolved in 50% DMSO, and dilutions were performed using Muller-Hinton medium. An adequate final concentration was obtained to determine the minimum inhibitory concentrations (MICs). The concentration of DMSO was maintained below 5%. The inhibitors were tested for synergy with the third-generation β-lactams ceftazidime and cefotaxime against several clinical bacteria. The ratio of β-lactams to inhibitors was 1:4. Each value reported reflects the average of three independent experiments. […] The Friedman's test and the Wilcoxon signed rank test were used to compare MIC values. Statistical significance was established at p<0.05.

Elastase = Elastase inhibition; assay type: biochemical; settings: Table 4h, Elastase vs AmpC
Description: as §1

AmpC β-lactamase [7] = target: T2, AmpC β-lactamase; assay type: biochemical; settings: for type of inhibition: Lineweaver-Burk analysis, competition with substrate CENTA; for time dependence of inhibition (incubation effect, off-rate): enzyme incubation and dilution experiments
[8] = Ki (from multi- or single concentration measurements), Table 4g
[9] = Table 8, read-out: Ki vs CTX-M-9

Structure (SMILES) | IC50 (CTX-M-9 β-lactamase) [µM] | Selectivity vs AmpC (comparison of IC50 values) (CTX-M-9 β-lactamase) | potency estimated from few doses (CTX-M-9 β-lactamase) [µM] | inhibition at 16 µM (CTX-M-9 β-lactamase) [%] | activity at 100 µM [1] [%] | potency estimated from few doses [1] [µM] | Ki [1] [µM] | Selectivity vs AmpC (comparison of IC50 values) [1] | inhibition at 100 µM [1] [%] | IC50 (AmpC β-lactamase [2]) [µM] | Ligand efficiency (AmpC β-lactamase [2]; Table 5) | Percentage activity with 100 μM inhibitor (Trypsin [3]) | Percentage inhibition with 100 μM inhibitor (Trypsin [3]) | potency estimated from few doses (Trypsin [3]) [µM] | Ki (Trypsin [5]) [µM] | clinical isolates for which MICs dropped into the susceptible range (MICs≦1 μg/mL) [6] [%] | MIC 25% percentile [6] [µg/mL] | MIC 75% percentile [6] [µg/mL] | type of inhibition (AmpC β-lactamase [7]) | time dependence of inhibition (incubation effect, off-rate) (AmpC β-lactamase [7]) | further results
O=C(O)c1cccc(CS(=O)(=O)NCB(O)O)c1 [CR167, [3-(Carboxyphenyl)methanesulfonylamino]methaneboronic acid] | 0.125 | 19 | 0.162 | 99 | 99 | 9900 | 2460 | 1523077 | 1 | 0.0065 | 0.66 | 95 | 5 | 1900 | 350 | 75 | 0.5 | 1.5 | competitive | incubation effect owing to slow off-rates | selectivity towards AmpC versus CTX-M-9 β-lactamase (CTX-M-9 β-lactamase; ratio of Ki values): ~30 fold; Ki (CTX-M-9 β-lactamase; read-out: Ki): 0.045 µM; Ki (AmpC β-lactamase [2]; Ki): 0.8 to 1.3 nM and 1.3 nM; Ki (AmpC β-lactamase [2]; [8]): 1.3 nM; Ki (AmpC β-lactamase [2]; Ki Vs AmpC, Table 7): 1.3 nM; Ki (AmpC β-lactamase [2]; Ki vs AmpC, Table 8): 1.3 nM; Ki (AmpC β-lactamase [2]; Ki, Table 5): 1.3 nM; Ki (AmpC β-lactamase [2]; Ki, Table 10, AmpC): 1.3 nM; Selectivity vs AmpC (comparison of IC50 values) (Trypsin [4]): 292308; Selectivity vs AmpC (comparison of IC50 values) (Elastase): 22139
O=S(=O)(NCB(O)O)c1ccc(-c2nn[nH]n2)cc1Cl [CR190, [2-chloro-4-(3-tetrazol-5-yl)benzensulfonylamino]methaneboronic acid] | 4 | 2346 | 4 | 81 | 85 | 567 | 141 | 354167 | 15 | 0.0016 | 0.65 | 95 | 5 | 1900 | 350 | 50 | 0.5 | 2.0 | competitive | slow off-rate | melting point: 110 to 113 °C (dec.); Ki (CTX-M-9 β-lactamase; [9]): 1.4 µM; Ki (AmpC β-lactamase [2]; [8]): 0.2 nM; Ki (AmpC β-lactamase [2]; Ki Vs AmpC, Table 7): 0.2 nM; Ki (AmpC β-lactamase [2]; Ki vs AmpC, Table 8): 0.2 nM; Ki (AmpC β-lactamase [2]; Ki, Table 5): 0.2 nM; Ki (AmpC β-lactamase [2]; Ki, Table 10, AmpC): 0.2 nM; Ki (AmpC β-lactamase [2]; Ki, running text and FIG. 18, substrate CENTA 105 μM): 0.2 nM; improved affinity compared to CR157 (AmpC β-lactamase [2]): 6 fold; Selectivity vs AmpC (comparison of IC50 values) (Trypsin [4]): 1187500; Selectivity vs AmpC (comparison of IC50 values) (Elastase): 30784
O=S(=O)(NCB(O)O)c1ccc(-c2nn[nH]n2)c(Cl)c1 [CR191, [3-chloro-4-(3-tetrazol-5-yl)benzensulfonylamino]methaneboronic acid] | 7 | – | 7 | 70 | 85 | 567 | 141 | – | 15 | 0.0016 | 0.57 | 95 | 5 | 1900 | 350 | 25 | 1.0 | 4.0 | competitive | slow off-rate | melting point: 195 to 198 °C (dec.); Ki (CTX-M-9 β-lactamase; [9]): 2.5 µM; Ki (AmpC β-lactamase [2]; Ki): 3 nM; Ki (AmpC β-lactamase [2]; [8]): 3 nM; Ki (AmpC β-lactamase [2]; Ki Vs AmpC, Table 7): 3 nM; Ki (AmpC β-lactamase [2]; Ki vs AmpC, Table 8): 3 nM; Ki (AmpC β-lactamase [2]; Ki, Table 5): 3 nM; Ki (AmpC β-lactamase [2]; Ki, Table 10, AmpC): 3 nM
O=S(=O)(NCB(O)O)c1ccc(-c2nnn[nH]2)cc1C(F)(F)F [CR192, [4-(3-tetrazol-5-yl)-2-trifluoromethyl-benzensulfonylamino]methaneboronic acid] | 5 | 11948 | 5 | 77 | 85 | 567 | 141 | 1416667 | 15 | 0.0004 | 0.60 | 96 | 4 | 2400 | 442 | 50 | 1.0 | 2.0 | competitive | slow off-rate | Ki (CTX-M-9 β-lactamase; [9]): 1.8 µM; time until substrate hydrolysis rates converge (equilibrium) (AmpC β-lactamase [2]; 50 pM AmpC, 500 pM inhibitor, with or without 5 minutes pre-incubation): 10 to 15 min; Ki (AmpC β-lactamase [2]; Table 4g, read-out: Ki (from multi- or single concentration measurements)): 0.05 nM; Ki (AmpC β-lactamase [2]; Table 5, read-out: Ki): 0.05 nM; Ki (AmpC β-lactamase [2]; Table 7, read-out: Ki Vs AmpC): 0.05 nM; Ki (AmpC β-lactamase [2]; Table 8, read-out: Ki vs AmpC): 0.05 nM; Ki (AmpC β-lactamase [2]; Table 10, AmpC, read-out: Ki): 0.05 nM; improved affinity compared to CR157 (AmpC β-lactamase [2]): 24 fold; Ki (AmpC β-lactamase [2]; running text and FIG. 18, substrate CENTA 105 μM, read-out: Ki): 0.05 nM; Selectivity vs AmpC (comparison of IC50 values) (Trypsin [4]): 6000000; Selectivity vs AmpC (comparison of IC50 values) (Elastase): 34091
O=S(=O)(Cc1cccs1)NCB(O)O [Compound 10] | – | – | – | – | – | – | – | – | – | – | – | – | – | – | – | – | – | – | – | – | melting point: 185 to 188 °C
